Measured values as given in patent US8211874B2, “Inhibition of thrombin generation” (Galderma Laboratories Inc., priority 2005, dated 2012).

Columns and labels:
[1] = tested on: thrombin generation; experiment: Thrombin generation in platelet poor plasma (Thrombinoscope, Innovin or Actin trigger); format: biochemical, human; settings: COL-3 final concentration 10.72, 21.44 and 536 μl, Innovin 5 pM or Actin 1:20 trigger, FIGS. 1A and 1B
Method: (§1) COL-3 was dissolved in DMSO (dimethyl sulfoxide, Sigma, St. Louis, Mo.). Blood was drawn from 5 consented healthy volunteers into 3.2% citrate tubes.
For thrombin generation experiments 80 μl of platelet poor plasma containing either saline, DMSO or COL-3 at final concentration of […] and thrombin generation trigger (Innovin 5 pM, or Actin 1:20 dilution, Dade Behring, Marburg, Germany) were added to 96 well microtiter plate (Microfluor-2, Thermolabsystems, Franklin Mass.) followed by 20 μl of calcium-substrate (Z-GGR-AMC, Bachem, Switzerland) buffer. The reaction was monitored by measuring increase in fluorescence at 390 nm excitation and 460 nm emission wavelengths and the acquired data was processed for lag time and peak thrombin generation parameters using Thrombinoscope software (Thrombinoscope BV, Maastricht, the Netherlands). The data were imported into excel file and the % decrease in thrombin generation due to COL-3 was calculated. Data were analyzed using repeated ANOVA p<0.05 was considered significant.

[2] = tested on: plasma PT; experiment: Prothrombin time (PT) in plasma; format: biochemical, human; settings: COL-3 10.72, 21.44 and 536 μM, FIG. 2
Method: as §1
(§2) Maximum amplitude (MA), angle, and R-value were recorded. For prothrombin time (PT) and activated partial thromboplastin time (aPTT) blood samples were centrifuged for 15 min at 3000× g to obtain plasma and COL-3 was added to a final concentration of 10.72, 21.44 and 536 μM. Testing was done using Start 4instrument (Diagnostic Stago, Parsippainy, N.J.) along with appropriate standards and controls.

[3] = tested on: plasma aPTT; experiment: Activated partial thromboplastin time (aPTT) in plasma; format: biochemical, human; settings: COL-3 10.72, 21.44 and 536 μM, FIG. 2
Method: as §1, §2

[4] = tested on: platelets; experiment: Platelet aggregation (light transmittance aggregometer, ADP and collagen activators); format: cell-based, human; settings: 200,000 platelets/μl; ADP and collagen (20 μM) as activators
Method: as §1
For platelet aggregation studies platelet rich and platelet poor plasma was separated by centrifugation. All platelet studies were performed in a total volume of 500 μl with 200,000 platelets/μl. Platelet aggregation was quantitated by measuring changes in light transmittance in dual channel aggregometer (Chronolog Corp. Havertown, Pa.) using ADP (adenosine di-phosphate) and collagen (final concentration 20 μM) as activators.

[5] = tested on: whole blood; experiment: TEG (Thromboelastograph) of whole blood activated with tissue factor; format: cell-based, human; settings: COL-3 10.72 or 21.44 μM, TF 4 pM
Method: as §1
For TEG (Thromboelastograph, Haemoscope Corp, Skokie Ill.) whole blood samples (0.34 ml) were added to cups along with 10 μl of saline (control), DMSO, or COL-3 (final concentration of 10.72 or 21.44 μM). After addition of calcium chloride (20 μl of 0.2 M), samples were activated with TF (tissue factor) (4 pM) and TEGs (thrombelastogram) were run according to manufacturers directions.
as §2

[6] = Plasma concentration in humans after daily dose; format: in vivo; settings: dose of about 10 to about 20 mg/day

In the case of `NC(=O)C1=C(O)C[C@@H]2C[C@@H]3Cc4cccc(O)c4C(=O)C3=C(O)[C@]2(O)C1=O` [COL-3, 6-demethyl-6-deoxy-4-de(dimethylamino)tetracycline], the thrombin generation [1] is reported as “dose dependent reduction”, the PT values [2] is reported as “increased only at the highest concentration” and the aPTT values [3] is reported as “increased only at the highest concentration”. The platelet aggregation [4] was “no effect”, the “TEG parameters (maximum amplitude (MA), angle, R-value)” value [5] was “no effect” and the “plasma concentrations in humans” value [6] was “about 1.0 μg/ml”.
